US10226041B2, “Compositions and methods for improving the quality of processed sperm” (Inguran, LLC, priority 2011, dated 2019)

System: sex-sorted sperm cells
Test: CASA post-thaw motility of sex sorted bull sperm treated with OSR
Type: cell-based, bovine
Parameters: key to BCF: beat cross frequency in Hz; key to ALH: lateral head displacement in μm; key to STR / LIN: percent; key to Motile: percent motile sperm; key to VAP / VSL / VCL: velocity in μm/s
Conditions: 3 step
Source text: 5. Sperm Motility Evaluations by CASA. A comparison of viewing chambers and slides can be done in a variety of IVOS instruments, which for example only can be a Hamilton-Thorne IVOS (Hamilton-Thorne, Beverly, Mass.). Instrument settings: image capture; frames per second=60; number of frames=30; cell detection; minimum contrast=50; minimum cell size=5; defaults, cell size=5; cell intensity=50; progressive cells, path velocity=50 um/s; straightness ≥70%; slow cells (um/s); average path velocity (VAP, <30 um/s), straight-line velocity (VSL, <15 um/s). The CASA motility variables measured can be a percentage of total motile sperm (motile), percentage of progressively motile sperm (progressive), VAO, VSL, curvilinear velocity (VCL, um/s), average lateral head displacement (ALK, um) and the number of times the sperm head crosses the mean path/s (BCF, Hz), straight-line sperm motility (STR, %), and linear sperm motility (LIN, %). See for instance, Lenz, R W, et al., J Anim Sci (2011) 89:383-388, incorporated by reference herein in its entirety.
One set of semen from each bull was used as a control while to the remaining sets of semen samples were added vitamin B12, as the antioxidant, at respective concentrations of 0.5 mg/ml and 0.25 mg/ml. For each sample, the same concentration of vitamin B12 was added (i) during the staining process, and (ii) in the catch fluid of the collection vessel. […] Sperm samples were sorted in “High Purity” mode, and the collected sex-sorted sperm were extended with a cryoextender, which in some cases again contained the same concentration of vitamin B12 and the samples were frozen. Three hours after thawing (which is a standard time frame to conduct quality control assessments on sorted frozen thawed sperm samples) the thawed samples were put through CASA, a machine that provides various data on sperm including motility and progressive motility information.
In the tables below: VAP (average path velocity (μm/s)); VSL (straight-line velocity (μm/s)); VCL (curvilinear velocity (μm/s)); ALH (average lateral head displacement (μm)); BCF (the number of times the sperm head crosses the mean path/s in Hz); STR (percent straight-line sperm motility); LIN (percent linear sperm motility); PIA (percent intact acrosomes); motile (percent motile sperm); and progressive (percent progressively motile sperm).
There is no correlation with regard to randomly assigned names such as “Bull A.” Bull A from Example 5 is not the same bull as Bull A from Example 7.
In both cases the concentration of the vitamin B12 was 1 mg/ml. For all other bulls in the table below unless otherwise indicated, the concentration of vitamin B12 added was also 1 mg/ml.
In an additional experiment, motility and progressive motility were checked 3.75 hours after thawing a sex sorted semen sample treated with the antioxidant. The OSR was not added to the control sample. The semen sample was derived from a single bull. 0.25 mg/ml concentration of vitamin B12 was added to the test sample during the staining step, the collecting step (in the catch fluid of the collecting vessel) and in the cryoprotectant extender prior to freezing the sample.
[…] The OSR was not added to the control samples. The semen samples were derived from two Holstein bulls.

[1] = Holstein 0 hr post-thaw, .25 mg/ml
[2] = Holstein 0 hr post-thaw, .35 mg/ml
[3] = Holstein 0 hr post-thaw, .45 mg/ml
[4] = Holstein 3 hr post-thaw (1st block), .25 mg/ml
[5] = Holstein 3 hr post-thaw (1st block), .35 mg/ml
[6] = Holstein 3 hr post-thaw (1st block), .45 mg/ml
[7] = Holstein 3 hr post-thaw (2nd block), .25 mg/ml
[8] = Holstein 3 hr post-thaw (2nd block), .35 mg/ml
[9] = Holstein 3 hr post-thaw (2nd block), .45 mg/ml
[10] = Holstein 6 hr post-thaw (1st block), .25 mg/ml
[11] = Holstein 6 hr post-thaw (1st block), .35 mg/ml
[12] = Holstein 6 hr post-thaw (1st block), .45 mg/ml
[13] = Holstein 6 hr post-thaw (2nd block), .25 mg/ml
[14] = Holstein 6 hr post-thaw (2nd block), .35 mg/ml
[15] = Holstein 6 hr post-thaw (2nd block), .45 mg/ml
[16] = Jersey 0 hr post-thaw, .25 mg/ml
[17] = Jersey 0 hr post-thaw, .35 mg/ml
[18] = Jersey 0 hr post-thaw, .45 mg/ml
[19] = Jersey 3 hr post-thaw, .25 mg/ml
[20] = Jersey 3 hr post-thaw, .35 mg/ml
[21] = Jersey 3 hr post-thaw, .45 mg/ml

Compound: O=C(O)CCC(=O)C(=O)O [AKG, Alpha-ketoglutarate]
- ALH [1]: 8
- BCF [1]: 27
- LIN [1]: 48
- Motile [1]: 91
- Prog [1]: 75
- STR [1]: 82
- VAP [1]: 104
- VCL [1]: 185
- VSL [1]: 81
- ALH [2]: 7
- BCF [2]: 29
- LIN [2]: 51
- Motile [2]: 80
- Prog [2]: 65
- STR [2]: 85
- VAP [2]: 94
- VCL [2]: 165
- VSL [2]: 80
- ALH [3]: 7
- BCF [3]: 30
- LIN [3]: 57
- Motile [3]: 86
- Prog [3]: 75
- STR [3]: 89
- VAP [3]: 98
- VCL [3]: 162
- VSL [3]: 88
- ALH [4]: 7
- BCF [4]: 26
- LIN [4]: 45
- Motile [4]: 77
- Prog [4]: 60
- STR [4]: 81
- VAP [4]: 99
- VCL [4]: 176
- VSL [4]: 79
- ALH [5]: 6
- BCF [5]: 25
- LIN [5]: 50
- Motile [5]: 63
- Prog [5]: 48
- STR [5]: 83
- VAP [5]: 85
- VCL [5]: 145
- VSL [5]: 70
- ALH [6]: 5
- BCF [6]: 24
- LIN [6]: 56
- Motile [6]: 60
- Prog [6]: 56
- STR [6]: 85
- VAP [6]: 94
- VCL [6]: 145
- VSL [6]: 80
- ALH [7]: 6
- BCF [7]: 26
- LIN [7]: 47
- Motile [7]: 71
- Prog [7]: 55
- STR [7]: 81
- VAP [7]: 96
- VCL [7]: 169
- VSL [7]: 77
- ALH [8]: 5
- BCF [8]: 21
- LIN [8]: 50
- Motile [8]: 64
- Prog [8]: 38
- STR [8]: 84
- VAP [8]: 69
- VCL [8]: 117
- VSL [8]: 57
- ALH [9]: 6
- BCF [9]: 25
- LIN [9]: 53
- Motile [9]: 60
- Prog [9]: 50
- STR [9]: 84
- VAP [9]: 90
- VCL [9]: 144
- VSL [9]: 75
- ALH [10]: 6
- BCF [10]: 17
- LIN [10]: 39
- Motile [10]: 36
- Prog [10]: 7
- STR [10]: 76
- VAP [10]: 44
- VCL [10]: 87
- VSL [10]: 33
- ALH [11]: 7
- BCF [11]: 16
- LIN [11]: 40
- Motile [11]: 58
- Prog [11]: 7
- STR [11]: 76
- VAP [11]: 42
- VCL [11]: 80
- VSL [11]: 32
- ALH [12]: 5
- BCF [12]: 22
- LIN [12]: 48
- Motile [12]: 52
- Prog [12]: 22
- STR [12]: 82
- VAP [12]: 55
- VCL [12]: 96
- VSL [12]: 46
- ALH [13]: 6
- BCF [13]: 17
- LIN [13]: 39
- Motile [13]: 36
- Prog [13]: 7
- STR [13]: 76
- VAP [13]: 44
- VCL [13]: 87
- VSL [13]: 33
- ALH [14]: 7
- BCF [14]: 16
- LIN [14]: 40
- Motile [14]: 58
- Prog [14]: 7
- STR [14]: 76
- VAP [14]: 42
- VCL [14]: 80
- VSL [14]: 32
- ALH [15]: 5
- BCF [15]: 22
- LIN [15]: 48
- Motile [15]: 52
- Prog [15]: 22
- STR [15]: 82
- VAP [15]: 55
- VCL [15]: 96
- VSL [15]: 46
- ALH [16]: 7
- BCF [16]: 24
- LIN [16]: 48
- Motile [16]: 67
- Prog [16]: 51
- STR [16]: 83
- VAP [16]: 83
- VCL [16]: 152
- VSL [16]: 68
- ALH [17]: 6
- BCF [17]: 25
- LIN [17]: 47
- Motile [17]: 57
- Prog [17]: 43
- STR [17]: 82
- VAP [17]: 79
- VCL [17]: 146
- VSL [17]: 63
- ALH [18]: 6
- BCF [18]: 27
- LIN [18]: 56
- Motile [18]: 81
- Prog [18]: 66
- STR [18]: 87
- VAP [18]: 81
- VCL [18]: 133
- VSL [18]: 70
- ALH [19]: 5
- BCF [19]: 24
- LIN [19]: 46
- Motile [19]: 33
- Prog [19]: 16
- STR [19]: 79
- VAP [19]: 65
- VCL [19]: 117
- VSL [19]: 49
- ALH [20]: 6
- BCF [20]: 25
- LIN [20]: 45
- Motile [20]: 26
- Prog [20]: 10
- STR [20]: 80
- VAP [20]: 59
- VCL [20]: 110
- VSL [20]: 46
- ALH [21]: 6
- BCF [21]: 25
- LIN [21]: 45
- Motile [21]: 59
- Prog [21]: 25
- STR [21]: 78
- VAP [21]: 67
- VCL [21]: 66
- VSL [21]: 50
